Experimental data published in article PMC6792352, “Limited Chemical Structural Diversity Found to Modulate Thyroid Hormone Receptor in the Tox21 Chemical Library” (Environmental Health Perspectives, 2019).
Counter-ions that a name gives are not always drawn. Like-named read-outs stand apart in the source and are kept apart here.

Experiments:
[1] = system: thyroid hormone receptor (endogenous TRα and TRβ); assay: GH3-TRE-Ag primary qHTS, luciferase reporter, agonist mode (TOX21_TR_LUC_GH3_Agonist, aeid 803); format: cell-based, rat; details: for GH3-TRE-Ag AC50 hitc: hit call from tcpl; for AC50: read-out: GH3-TRE-Ag AC50
[2] = system: thyroid hormone receptor (endogenous TRα and TRβ); assay: GH3-TRE-Ag-Followup confirmation (TOX21_TR_LUC_GH3_Agonist_Followup, aeid 2226); format: cell-based, rat; details: for GH3-TRE-Ag-Followup hitc: hit call from tcpl; for AC50: read-out: GH3-TRE-Ag-Followup AC50
[3] = target: T1, human RXRα (Homo sapiens, UniProt P19793); assay: RXRa-bla-Ag mammalian one-hybrid beta-lactamase assay (TOX21_TR_RXR_BLA_Agonist_Followup_ratio, aeid 2253); format: cell-based; details: for tr-followup-rxr-bla-agonist-1 hitc: hit call from tcpl; for Emax: read-out: EMax (% of Control) tr-followup-rxr-bla-agonist-1; for AC50: read-out: tr-followup-rxr-bla-agonist-1 AC50
T1 construct: host or cells: GeneBLAzer UAS-bla HEK 293T
T1 sequence (P19793 227-458 limits assumed): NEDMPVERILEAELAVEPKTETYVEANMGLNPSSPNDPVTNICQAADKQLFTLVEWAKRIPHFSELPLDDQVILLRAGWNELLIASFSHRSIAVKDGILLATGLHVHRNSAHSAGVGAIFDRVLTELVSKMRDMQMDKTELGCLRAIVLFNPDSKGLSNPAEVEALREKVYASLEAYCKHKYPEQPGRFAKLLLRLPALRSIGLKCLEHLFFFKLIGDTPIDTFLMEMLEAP

[4] = target: T2, TRα ligand-binding domain (Homo sapiens, UniProt P10827); assay: TRa-coa LanthaScreen TR-FRET coactivator (SRC-2 peptide) recruitment, agonist (TOX21_TRA_COA_Agonist_Followup_ratio, aeid 2230); format: biochemical; details: for AC50 / TRa-coa hitc: agonist; for AC50: read-out: TRa-coa AC50; for TRa-coa hitc: hit call from tcpl; for Emax: read-out: EMax (% of Control) tra-coa-agonist-followup-1
T2 construct: the receptor LBDs expressed as glutathione S-transferase (GST) fusion proteins; purchased
T2 sequence (P10827 163-410 isoform P10827-2 limits assumed, other chains not shown): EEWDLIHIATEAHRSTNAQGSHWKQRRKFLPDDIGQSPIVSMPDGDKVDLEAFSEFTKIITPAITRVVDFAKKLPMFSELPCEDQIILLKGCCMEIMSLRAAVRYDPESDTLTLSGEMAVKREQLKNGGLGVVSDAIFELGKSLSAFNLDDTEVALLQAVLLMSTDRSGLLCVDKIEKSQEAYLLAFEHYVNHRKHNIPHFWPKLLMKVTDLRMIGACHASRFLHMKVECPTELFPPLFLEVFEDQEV

[5] = system: Tox21 cell viability assays (different cell types); assay: Global cytotoxicity: eighteen Tox21 cell viability assays; format: cell-based
[6] = system: thyroid hormone receptor (TR); assay: Classification of TR actives across characterization assays (TR-Ag / RXR-Ag; TR model binary); parameters: key to Categorization Code: FP, false positive; details: TR agonist characterization
In short: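 GH3-TRE qHTS agonist, antagonist and viability modes over 8,305 compounds; 84 candidates rescreened in GH3-TRE-Ag, TRβ- and RXRα-UAS-bla HEK 293T one-hybrid assays, HEK293T viability, and TRα/TRβ coactivator recruitment. Actives classified binary after removing pharmaceuticals.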

[7] = system: GH3-TRE-Luc cell line
[8] = in vitro; details: rat, gh3-tre-luc cells, AC50 (uM) modified / 1000
[9] = target: T3, human TRβ ligand-binding domain (Homo sapiens, UniProt P10828); assay: TRb-bla agonist mammalian one-hybrid beta-lactamase assay (TOX21_TRB_BLA_Agonist_Followup_ratio, aeid 2236); format: cell-based; parameters: host or cells: GeneBLAzer UAS-bla HEK 293T; details: for AC50 / TRb-bla hitc: agonist; for AC50: read-out: TRb-bla AC50; for TRb-bla hitc: hit call from tcpl; for Emax: read-out: EMax (% of Control) trb-bla-agonist-followup-1
T3 sequence (P10828 217-461 limits assumed): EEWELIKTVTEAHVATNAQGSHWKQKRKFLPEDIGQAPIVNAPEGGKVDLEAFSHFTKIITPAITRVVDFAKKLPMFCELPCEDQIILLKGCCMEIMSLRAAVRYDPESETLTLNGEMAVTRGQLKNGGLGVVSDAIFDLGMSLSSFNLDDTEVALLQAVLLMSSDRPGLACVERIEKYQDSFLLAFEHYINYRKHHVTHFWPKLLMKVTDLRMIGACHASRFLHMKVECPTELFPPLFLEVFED

[10] = target: T3, human TRβ ligand-binding domain; assay: TRb-coa LanthaScreen TR-FRET coactivator (SRC-2 peptide) recruitment, agonist (TOX21_TRB_COA_Agonist_Followup_ratio, aeid 2244); format: biochemical; parameters: host or cells: GeneBLAzer UAS-bla HEK 293T; details: for AC50 / TRb-coa hitc: agonist; for AC50: read-out: TRb-coa AC50; for TRb-coa hitc: hit call from tcpl; for Emax: read-out: EMax (% of Control) trb-coa-agonist-followup-1
[11] = system: GH3-TRE-Luc cell line; assay: GH3-TRE-Via cell viability, CellTiter-Fluor (TOX21_TR_LUC_GH3_Antagonist_viability, aeid 805); details: for resp_max GH3-TRE-Via: Table S8
[12] = system: thyroid hormone receptor (endogenous TRα and TRβ); assay: GH3-TRE-Antag primary qHTS, luciferase reporter, antagonist mode with 1 nM T3 (TOX21_TR_LUC_GH3_Antagonist, aeid 804); format: cell-based, rat; details: for resp_max GH3-TRE-Antag: Table S8
[13] = Rattus norvegicus, read-out: TR_LUC_GH3_Antagonist_viability AC50 (uM)

| Compound | EMax (% of Control) gh3-tre-agonist [1] | GH3-TRE-Ag AC50 hitc [1] | EMax (% of Control) gh3-tre-agonist-followup-1_agonist [2] | GH3-TRE-Ag-Followup hitc [2] | AC50 [2] [µM] | tr-followup-rxr-bla-agonist-1 hitc [3] | Emax [3] [%] | AC50 [3] [µM] | AC50 [4] [µM] | TRa-coa hitc [4] | Emax [4] [%] | GLOBAL CYTOTOXICITY cytotox.median [5] | GLOBAL CYTOTOXICITY cytotox.number_Active [5] | Categorization Code [6] | TR_LUC_GH3_Antagonist_viability hitc ([7]; rat, 24 h) | CC50 at 24 h [8] [µM] | AC50 [9] [µM] | TRb-bla hitc [9] | TRb-coa hitc [10] | AC50 [11, 13] [µM] | further results |
| --- | --- | --- | --- | --- | --- | --- | --- | --- | --- | --- | --- | --- | --- | --- | --- | --- | --- | --- | --- | --- | --- |
| NCC(=O)CCC(=O)O [Aminolevulinic acid hydrochloride] | 29.9 % of Control | 1 | 43.5 % of Control | 1 | 22.5 | 0 | 13 | > 92 | > 92 | 0 | 1.1 | >92 | 0 | FP | 0 | > 50 | > 92 | 0 | 0 | > 92 | Emax [9]: 12.7%; AC50 [10]: > 92 µM; Emax [10]: 3.6% |
| C[C@H](CCC(=O)NCC(=O)O)[C@H]1CC[C@H]2[C@@H]3[C@H](O)C[C@@H]4C[C@H](O)CC[C@]4(C)[C@H]3C[C@H](O)[C@]12C [glycocholic acid] | 27.2 % of Control | 1 | 34.6 % of Control | 0 | – | 0 | -1.3 | > 92 | > 92 | 0 | -0.137 | – | 0 | Equivocal RXR-Ag | 0 | – | > 92 | 0 | 0 | > 92 | activity in GH3-TRE agonist assay [1]: active; GLOBAL CYTOTOXICITY cytotox.median ([5]; median over Tox21 viability assays): >92; Emax [9]: 14.8%; AC50 [10]: > 92 µM; Emax [10]: -0.225% |
| COc1ccc(OC)c(C(O)C(C)N)c1 (centres unmarked) [Methoxamine hydrochloride] | 25.7 % of Control | 1 | 29.2 % of Control | 1 | 23.4 | 0 | -0.7 | > 92 | > 92 | 0 | 0.282 | >92 | 0 | FP | 0 | > 50 | > 92 | 0 | 0 | > 92 | Emax [9]: 7.9%; AC50 [10]: > 92 µM; Emax [10]: 1.5% |
| CC(C)(c1ccc(O)cc1)c1ccc(O)cc1 [BPA, bisphenol A] | – | – | – | – | – | – | – | – | – | – | – | – | – | – | – | > 90 | – | – | – | – | activity in GH3-TRE antagonist mode assay [12]: active in suppressing the TR transactivation assay |
| CCc1cc(OC)c(C[C@@H](C)N)cc1OC [(-)-2,5-Dimethoxy-4-ethylamphetamine hydrochloride] | – | – | – | – | – | – | – | – | – | – | – | – | – | – | – | – | – | – | – | – | resp_max GH3-TRE-Antag [12]: 85.7; resp_max GH3-TRE-Via [11]: 62.2 |
| N[C@@H](Cc1ccc(Oc2cc(I)c(O)c(I)c2)c(I)c1)C(=O)O [3,3',5'-Triiodo-L-thyronine] | 111.6 % of Control | 1 | 87.2 % of Control | 1 | 0.537 | 0 | – | > 92 | – | 1 | – | >92 | 0 | TR-Ag | – | – | – | 1 | 1 | – | EMax (% of Control) tr-followup-rxr-bla-agonist-1 [3]: 17.4 % of Control; EMax (% of Control) tra-coa-agonist-followup-1 [4]: 152.6 % of Control; TR_LUC_GH3_Antagonist_viability hitc [7]: 0; EMax (% of Control) trb-bla-agonist-followup-1 [9]: 93.8 % of Control; EMax (% of Control) trb-coa-agonist-followup-1 [10]: 117.6 % of Control; AC50 ([11]; read-out: TR_LUC_GH3_Antagonist_viability AC50): > 92 µM |
| CCN(CC)C(=O)N[C@@H]1C=C2c3cccc4[nH]cc(c34)C[C@@H]2N(C)C1 [(-)-(5S,8R)-Lisuride] | – | – | – | – | – | – | – | – | – | – | – | – | – | – | – | – | – | – | – | – | resp_max GH3-TRE-Antag [12]: 34.7; resp_max GH3-TRE-Via [11]: 42.3 |
| O=c1[nH]cnc2c1ncn2[C@H]1CC[C@@H](CO)O1 [2',3'-Dideoxyinosine] | 1.6 % of Control | 0 | 78.5 % of Control | 1 | 3.46 | 0 | -0.6 | > 92 | > 92 | 0 | -0.5 | >92 | 0 | FP | 0 | > 100 | 3.46 | 1 | 0 | > 92 | AC50 [1]: > 92 µM; Emax [9]: 74.4%; AC50 [10]: > 92 µM; Emax [10]: -0.448% |
| Nc1ccc(S(=O)(=O)Nc2nccs2)cc1 [Sulfathiazole] | 1.9 % of Control | 0 | 19.5 % of Control | 0 | – | 0 | 30 | > 92 | – | – | – | >92 | 0 | FP | 0 | > 50 | – | – | – | > 92 | AC50 [1]: > 92 µM |
